# From patent publication US20250369974A1, “METHOD FOR MONITORING AND PREVENTING CLINICALLY SIGNIFICANT KETONE LEVELS IN PATIENTS RECEIVING DICHLOROACETATE CO-ADMINISTERED WITH A CARBOHYDRATE RESTRICTED DIET” (SAOL INTERNATIONAL DEVELOPMENT LTD., priority 2024, published 2025)
# Where two headings read alike, the source gives them in different places.
# Legend:
# [1] = system: patients with Pyruvate Dehydrogenase Complex Deficiency (PDCD); experiment: Plasma BHB (ketone) levels in Phase III study of DCA in PDCD patients; type: in vivo, human
# Experimental: (§1) A total of 30 (of the 34) patients in the Phase III study in PDCD patients had lab values that could be evaluated throughout the study. Of these 30, 24 were defined to be adherent to a ketogenic diet based on their BHB level at baseline to be >0.3 mM.
# (§2) A double-blind period (Phase A) and an open label period (Phase B) was performed in patients 6 months through 17 years of age with Pyruvate Dehydrogenase Complex Deficiency (PDCD) (n=34). Patients receiving DCA were dose-stratified according to GSTZ1 genotype. DCA was dosed orally (oral, nasogastric tube, or gastric tube route) at either 12.5 mg/kg (fast metabolizers) or 6.25 mg/kg (slow metabolizers), every 12 hours. Twenty-seven (27) of 34 patients (79%), were fast metabolizers. […]
# [2] = system: patients with Pyruvate Dehydrogenase Complex Deficiency (PDCD); experiment: Plasma lactate levels in Phase III study of DCA in PDCD patients; type: in vivo, human
# Experimental: as §1, §2
# Plasma lactate levels were evaluated as a key biomarker in PDCD. Lactate is a universal marker of disease activity in PDCD, and its elevation is a direct result of the fundamental metabolic deficit. Patients with PDCD have chronically elevated levels of lactate due to decreased PDC activity. Lowering of plasma lactate with use of DCA is considered a biomarker of its activation of PDC.
# [3] = system: patients with Pyruvate Dehydrogenase Complex Deficiency (PDCD); experiment: Phase III double-blind, placebo-controlled crossover study with open label period: ObsROmotor, GHA, seizures, observer survey; type: in vivo, human
# Experimental: A double-blind period (Phase A) and an open label period (Phase B) was performed in patients 6 months through 17 years of age with Pyruvate Dehydrogenase Complex Deficiency (PDCD) (n=34). Patients receiving DCA were dose-stratified according to GSTZ1 genotype. DCA was dosed orally (oral, nasogastric tube, or gastric tube route) at either 12.5 mg/kg (fast metabolizers) or 6.25 mg/kg (slow metabolizers), every 12 hours. Twenty-seven (27) of 34 patients (79%), were fast metabolizers.
# The drug product is a clear, colorless solution.
# The primary efficacy outcome was assessed using an observer reported outcome that measures motor function, referred to as the ObsROmotor. The ObsROmotor is a daily observer reported survey that assesses weakness, incoordination, hypotonia (low muscle tone), hypertonia (rigidity, stiff muscle tone), and involuntary movements. Each domain was scored from 0 to 4, where 0 is no presence of the symptom, 1 is mild, 2 is moderate, 3 is severe and 4 extreme, with a total score ranging from 0 to 20.
# PDCD is a heterogenous disease with neurologic, metabolic and structural abnormalities. An observer rated Global Health Assessment (GHA) was also used to assess the overall health of the patient in addition to ObsROmotor. GHA was measured each week to assess the prior 7 days using a 5-point scale (much better, better, no change, worse, much worse). GHA scores improved over time and the scores were correlated with ObsROmotor.
# [4] = system: pediatric patients with PDCD; experiment: Survival study of DCA-treated patients versus untreated natural history cohort; type: in vivo, human; details: primary endpoint, matched on age and sex; n=28 vs n=28; p=0.0273
# Experimental: Efficacy was assessed in a second study by comparing overall survival in pediatric patients with PDCD treated with DCA (n=28) with an untreated natural history cohort of pediatric patients with genetically confirmed PDCD (n=28).
# [5] = system: pediatric patients with PDCD; experiment: Adverse reaction data of Phase III study and open-label extension; type: in vivo, human
# Experimental: In the Phase III study, the safety of DCA was assessed in 34 pediatric patients with PDCD aged 6 months to 17 years. Patients receiving DCA were dose-stratified post-randomization according to GSTZ1 genotype to mitigate risk of peripheral neuropathy. DCA was dosed at either 12.5 mg/kg or 6.25 mg/kg divided into two equal doses approximately 12 hours apart. The dose based on GSTZ1 genotyping was done at baseline before patients initiated therapy. As noted above, this Phase III controlled study was followed by an ongoing, open-label extension study, used to assess long term safety and survival outcomes.
# In the open-label extension study, patients were treated for up to 3 years (median: 1.4 years) with DCA. The adverse events observed during the open-label phase of the study were similar to those observed in the double-blind portion of the study. During the open label portion of the trial there was a report of mild peripheral neuropathy in one patient who later withdrew from the study for a family relocation. This occurred after 18 months and was considered possibly drug related. DCA induced peripheral neuropathy has been identified as reversible upon therapy discontinuation.
# GSTZ1 haplotype carriers = details: cited from earlier work
# [6] = Patient 01-001, DCA Open Label 1, keto ratio 4.0:1
# [7] = Patient 01-001, DCA Open Label 2, keto ratio 4.0:1
# [8] = Patient 01-001, DCA Open Label 3, keto ratio 4.0:1
# [9] = Patient 01-001, DCA period, keto ratio 3.1:1
# [10] = Patient 03-001, DCA Open Label 1, keto ratio Not Recorded
# [11] = Patient 03-001, DCA Open Label 2, keto ratio 3.2:1
# [12] = Patient 03-001, DCA Open Label 3, keto ratio 3.1:1
# [13] = Patient 03-001, DCA period, keto ratio 4.0:1
# [14] = Patient 07-003-S, DCA Open Label 1, keto ratio 0.7:1
# [15] = Patient 07-003-S, DCA period, keto ratio 3.0:1
# [16] = of the 24 patients adherent to the ketogenic diet
# [17] = Phase III, all patients, p=0.006
# [18] = severe patients (N=15), domain outside of motor function
smiles,measurement,setting,value
"O=C(O)C(Cl)Cl [DCA, Dichloroacetate]",average BHB level while on DCA,"[1]; 9 patients without BHB increase, 2.04 mM not on DCA",1.8 mM
same,measures that exceeded 3.0 mM BHB while on DCA,"[1]; 9 patients without BHB increase, 38% not on DCA",24%
same,average BHB level while on DCA,"[1]; 15 patients that experienced an increase, 2.19 mM not on DCA",3.27 mM
same,measurements with clinically significant BHB (>3.0 mM) while on DCA,"[1]; 15 patients that experienced an increase, 13% not on DCA",62%
same,increase in average BHB level,"[1]; 15 patients that experienced an increase, on DCA vs not on DCA",49%
same,BHB,[1]; [6],3.19 mM
same,BHB,[1]; [7],2.74 mM
same,BHB,[1]; [8],4.08 mM
same,BHB,[1]; [9],6.36 mM
same,BHB,[1]; [10],4.41 mM
same,BHB,[1]; [11],2.76 mM
same,BHB,[1]; [12],2.06 mM
same,BHB,[1]; [13],4.21 mM
same,BHB,[1]; [14],2.38 mM
same,BHB,[1]; [15],4.02 mM
same,increase in the number of patients with BHB levels of 3.0 mM or higher,[1]; group experiencing increases in BHB,~5 fold
same,BHB levels greater than 4.0 while on DCA,"[1]; group experiencing increases in BHB, 3% while not on DCA",28%
same,patients that did not experience a rise in ketone levels after administration of DCA,[1]; [16],Nine
same,patients with a rise in ketone levels after administration of DCA,[1]; [16],15
same,drop in lactate,[2]; 9 patients without BHB increase,11%
same,percentage of patients with normal lactate levels (2.0 mM or less) while on DCA,"[2]; 9 patients without BHB increase, 51% not on DCA",71%
same,drop in lactate levels while on DCA,[2]; 15 patients with BHB increase,20%
same,percentage of patients with normal lactate levels (2.0 mM or less) while on DCA,"[2]; 15 patients with BHB increase, 33% not on DCA",73%
same,Lactate,[2]; [6],1.58 mM
same,Lactate,[2]; [7],2.13 mM
same,Lactate,[2]; [8],1.33 mM
same,Lactate,[2]; [9],1.4 mM
same,Lactate,[2]; [10],1.36 mM
same,Lactate,[2]; [11],1.16 mM
same,Lactate,[2]; [12],1.41 mM
same,Lactate,[2]; [13],1.25 mM
same,Lactate,[2]; [14],0.68 mM
same,Lactate,[2]; [15],1.99 mM
same,"difference in plasma lactate, DCA vs. placebo",[2]; [17],-0.477 mM
same,"reduction in plasma lactate levels, DCA vs. placebo",[2]; [17],21%
same,patients achieving lactate normalization while on DCA therapy,[2]; in both groups (with and without BHB increase),> 70%
same,patients on DCA achieving normal levels (≤2mmol/L) of lactate,"[2]; vs. 42% on placebo, P=0.0114",66%
same,patients maintaining stable disease or achieving clinically meaningful improvement (>20% reduction in ObsROmotor),"[3]; open label extension, of 34 patients",24
same,"survey respondents noting improvement in cognition, verbal communication, mobility, and/or endurance","[3]; open-label office visits, 25 of the 26 respondents",96.2%
same,observers rating patients with a GHA as better or much better,[3]; open-label portion,> 80%
same,patients showing improvement in motor function in at least one of the five domains,[3]; patients with more severe impairment at baseline (N=15),93%
same,improvement of motor function in the ObsROmotor scale vs. placebo,"[3]; patients with more severe impairment at baseline (N=15), p=0.066",−1.12
same,number of severe patients improving: hypertonia,[3]; severe patients (N=15),6
same,number of severe patients improving: hypotonia,[3]; severe patients (N=15),8
same,number of severe patients improving: incoordination,[3]; severe patients (N=15),6
same,number of severe patients improving: involuntary movement,[3]; severe patients (N=15),6
same,number of severe patients improving: weakness,[3]; severe patients (N=15),6
same,number of severe patients improving: fatigue,[3]; [18],7
same,number of severe patients improving: sleep,[3]; [18],8
same,multivariate risk reduction in the relative risk of death vs untreated patients,[4],99%
same,Balance disorder,[5]; DCA (N = 34),1 (2.9) n (%)
same,Bruxism,[5]; DCA (N = 34),0 n (%)
same,Constipation,[5]; DCA (N = 34),1 (2.9) n (%)
same,Diarrhea,[5]; DCA (N = 34),1 (2.9) n (%)
same,Fatigue,[5]; DCA (N = 34),1 (2.9) n (%)
same,Flatulence,[5]; DCA (N = 34),0 n (%)
same,Gastrointestinal disorders (SOC),[5]; DCA (N = 34),2 (5.9) n (%)
same,General disorders and administration site conditions (SOC),[5]; DCA (N = 34),1 (2.9) n (%)
same,Insomnia,[5]; DCA (N = 34),0 n (%)
same,Irritability,[5]; DCA (N = 34),0 n (%)
same,Muscular weakness,[5]; DCA (N = 34),1 (2.9) n (%)
same,Musculoskeletal and connective tissue disorders (SOC),[5]; DCA (N = 34),1 (2.9) n (%)
same,Nervous system disorders (SOC),[5]; DCA (N = 34),1 (2.9) n (%)
same,Psychiatric disorders (SOC),[5]; DCA (N = 34),0 n (%)
same,Salivary hypersecretion,[5]; DCA (N = 34),0 n (%)
same,Skin and subcutaneous tissue disorders (SOC),[5]; DCA (N = 34),1 (2.9) n (%)
same,Syncope,[5]; DCA (N = 34),1 (2.9) n (%)
same,Tremor,[5]; DCA (N = 34),1 (2.9) n (%)
same,Urticaria,[5]; DCA (N = 34),1 (2.9) n (%)
same,deaths,"[5]; Phase III, 34 pediatric patients",no deaths
same,most commonly reported adverse reaction: gastrointestinal disorders,[5]; n=2 of 34 DCA-treated patients,5.9%
same,patients with report of mild peripheral neuropathy,"[5]; open label portion, after 18 months, considered possibly drug related",one
same,risk of peripheral neuropathy adverse events,"GSTZ1 haplotype carriers; EGT carriers (fast metabolizers), 25 mg/kg/day",low risk
same,risk of peripheral neuropathy adverse events,"GSTZ1 haplotype carriers; EGT non-carriers (slow metabolizers), 12.5 mg/kg/day",experience the same
